Test results from ChEMBL document CHEMBL1857833, “Screening and optimization of specific chemical series against human African Trypanosomiasis (HAT)”.
Converted amounts (≈) assume the structure as drawn. “And” between values parts separate entries of the source, which are not always exact repeats. Equal values may be shown once.

Key:
Trypanosoma brucei = assay: DNDI: Inhibition of Human African Trypanosomiasis, SBRI 427, in vitro; type: functional, organism-based
[1] = mouse, microsomes, 1 µM
Description: DNDI: in vitro intrinsic clearance in mouse liver microsomes at a concentration of 1uM

[2] = DNDI: Cytotoxicity against L929 mouse fibroblasts, 72 hour.; type: toxicity, cell-based; details: mouse, L929 mouse fibroblasts
in vitro = details: mouse, liver microsomes, t (1 / 2)
Description: DNDI: half life in mouse liver microsomes at a concentration of 1uM

[3] = DNDI: Cytotoxicity against L929 mouse fibroblasts, CYTO-SP, 24 hour; type: toxicity, cell-based; details: mouse, L929 mouse fibroblasts
[4] = DNDI: Lipophilicity measured in Chromatographic hydrophobicity index (CHI) assay, pH 7.4; type: physicochemical; details: buffer
[5] = DNDI: Solubility in phosphate buffered saline at pH7.4 measured by nephelometry at room temperature (NEPH-RT); type: physicochemical; details: pH 7.4
[6] = Trypanosoma brucei, SBRI 427, read-out: IC50

Row | IC50 (Trypanosoma brucei; [6]) | CLint in vitro [1] | half-life at 1 µM (in vitro) | chromatographic logD [4] | solubility kinetic [5] | IC50 (Trypanosoma brucei) | SMILES | IC50 at 72 h [2] | IC50 at 24 h [3]
1 | 0.3 µg/mL (≈ 0.76 µM) | 27 µL/min/mg | 32 min |  |  |  | CCCCCOc1ccc(-c2nc(CNC3[C@H]4C[C@@H]5C[C@@H](C[C@H]3C5)C4)co2)cc1 (stereo partly drawn) | < 3.13 µg/mL | > 50 µg/mL
2 | 1.57 µg/mL (≈ 4.36 µM) | 42 µL/min/mg | 20 min |  |  |  | CCCCCC(C)NCc1coc(-c2ccc(OCCOCC)cc2)n1 (stereo not drawn) | 5.78 µg/mL (≈ 16 µM) | 
3 | > 5 µg/mL | 209 µL/min/mg | 4 min |  |  |  | CCc1ccccc1N/C(=N\O)c1ccccc1-c1ccccc1 |  | 16.3 µg/mL (≈ 51.5 µM)
4 | > 5 µg/mL |  |  | 2.34 | > 200 µM |  | CN1CC(OC(=O)c2ccccc2)=CC1=O | > 10 µg/mL | 
5 | 4.9 µg/mL (≈ 12.5 µM) | 206 µL/min/mg | 4 min |  |  |  | CCC(C)C(NCc1ccco1)c1nc(-c2ccccc2)c(N2CCCCC2)o1 (stereo not drawn) | > 10 µg/mL | 
6 | 0.49 µg/mL (≈ 1.33 µM) | 30 µL/min/mg | 28 min |  |  |  | CCCOc1ccc(-c2nc(CN[C@@H]3C[C@@H]4C[C@H]([C@H]3C)C4(C)C)co2)cc1 | < 3.13 µg/mL | 15.7 µg/mL (≈ 42.7 µM)
7 | 4.53 µg/mL (≈ 9.61 µM) |  |  |  | 6 µM (≈ 2.83 µg/mL) |  | FC(F)(F)c1ccc(CNC(c2nc(Cc3ccccc3)c(N3CCOCC3)o2)C2CC2)cc1 (stereo not drawn) | > 10 µg/mL | 
8 | > 5 µg/mL | 280 µL/min/mg | 3 min |  |  |  | O/N=C(\NC1CCCCC1)c1ccc(-c2ccccc2)cc1 |  | 36 µg/mL (≈ 122 µM)
9 | 4.15 µg/mL (≈ 8.58 µM) | 344 µL/min/mg | 2 min |  |  |  | COc1ccccc1CNC(CCc1ccccc1)c1nc(-c2ccccc2)c(N2CCOCC2)o1 (stereo not drawn) | > 10 µg/mL | 
10 |  |  |  |  | 1 µM (≈ 0.38 µg/mL) | 1.43 µg/mL and 0.89 µg/mL and 2.17 µg/mL | COc1cccc(OC)c1CNCc1coc(-c2ccc(C(C)(C)C)cc2)n1 | 2.07 µg/mL (≈ 5.44 µM) | 43.2 µg/mL (≈ 114 µM)
11 | 4.56 µg/mL (≈ 11.4 µM) |  |  | > 5.2 | 3 µM (≈ 1.2 µg/mL) |  | Cc1ccc(CNC(c2nc(-c3ccccc3)c(N3CCCCC3)o2)C2CC2)cc1 (stereo not drawn) | > 10 µg/mL | 
12 | > 5 µg/mL | 44 µL/min/mg | 19 min |  |  |  | CCCCc1ccc(-c2nc(CNCc3cccnc3)co2)cc1 | > 10 µg/mL | 
13 | > 5 µg/mL | 348 µL/min/mg | 2 min |  |  |  | CCCCc1ccc(-c2nc(CN3CCOCC3)co2)cc1 | > 10 µg/mL | 
14 | 0.22 µg/mL (≈ 0.621 µM) | 4 µL/min/mg | 232 min |  |  |  | CCCCCC(C)NCc1coc(-c2ccc(C3CCCCC3)cc2)n1 (stereo not drawn) | 0.67 µg/mL (≈ 1.89 µM) | 
15 | > 5 µg/mL |  |  | 2.72 | > 200 µM |  | COc1ccc(C(=O)OC2=CC(=O)N(C)C2)cc1 | > 10 µg/mL | 
16 | 1.29 µg/mL (≈ 3.27 µM) | 25 µL/min/mg | 34 min |  |  |  | CCCCCC(C)NCc1coc(-c2ccc(Oc3ccc(OC)cc3)cc2)n1 (stereo not drawn) | 5.61 µg/mL (≈ 14.2 µM) | 
17 | 0.88 µg/mL (≈ 2.57 µM) | 9 µL/min/mg | 98 min |  |  |  | CCCCCC(C)NCc1coc(-c2ccc(OC3CCC3)cc2)n1 (stereo not drawn) | 2.36 µg/mL (≈ 6.89 µM) | 
18 | > 5 µg/mL | 307 µL/min/mg | 3 min |  | 6 µM (≈ 2.59 µg/mL) |  | CC(C)CNC(CCc1ccccc1)c1nc(Cc2ccccc2)c(N2CCCCC2)o1 (stereo not drawn) | > 10 µg/mL | 
19 | 0.46 µg/mL (≈ 1.32 µM) | 351 µL/min/mg | 2 min |  |  | 0.48 µg/mL (≈ 1.38 µM) | O/N=C(\NC1CCCCC1)c1cccnc1Oc1c(F)cccc1F | > 10 µg/mL | > 50 µg/mL
20 | > 5 µg/mL | 116 µL/min/mg | 7 min |  |  |  | O=C(NC1CCCCC1)c1ccccc1-c1ccccc1 |  | > 50 µg/mL
21 | 5 µg/mL (≈ 11 µM) | 217 µL/min/mg | 4 min |  |  |  | Cc1cccc(CNC(c2ccccc2)c2nc(Cc3ccccc3)c(N3CCOCC3)o2)c1 (stereo not drawn) | > 10 µg/mL | 
22 | 0.34 µg/mL (≈ 0.852 µM) | 3 µL/min/mg | 313 min |  |  |  | CCCCCC(C)NCc1coc(-c2ccc(Oc3ccc(Cl)cc3)cc2)n1 (stereo not drawn) | 2.07 µg/mL (≈ 5.19 µM) | 
23 | 4.06 µg/mL (≈ 9.32 µM) | 440 µL/min/mg | 2 min |  | 6 µM (≈ 2.61 µg/mL) |  | CCC(C)C(NCc1ccccc1OC)c1nc(-c2ccccc2)c(N2CCOCC2)o1 (stereo not drawn) | > 10 µg/mL | 
24 | 1.25 µg/mL (≈ 3.76 µM) |  |  |  | 6 µM (≈ 1.99 µg/mL) |  | CCCCCC(C)NCc1coc(-c2cc(OC)cc(OC)c2)n1 (stereo not drawn) | 4.75 µg/mL (≈ 14.3 µM) | 
25 | 0.42 µg/mL (≈ 1.27 µM) | 3 µL/min/mg | 267 min |  |  |  | CC(C)(C)CNCc1coc(-c2ccc(OCC(C)(C)C)cc2)n1 | 1.35 µg/mL (≈ 4.09 µM) | 
26 | 1.6 µg/mL (≈ 5.06 µM) | 87 µL/min/mg | 10 min |  |  |  | CCCCCC(C)NCc1coc(-c2ccc(C)c(OC)c2)n1 (stereo not drawn) | 5.27 µg/mL (≈ 16.7 µM) | 
